Key:
[1] = biological target: nucleotide-binding domain (NBD) of human HSC70 (HSC70-NBD residues 1–381) (Homo sapiens, UniProt P11142); test: SPR affinity against immobilised HSC70-NBD; settings: for fold increase in affinity compared to adenosine 1: comparator adenosine 1; for binding / affinity in words: SPR, HSC70-NBD, concentrations up to 1 mM; for fold improvement in affinity compared to 8-N-methylaminoadenosine 4: comparator 4 (Table 1, entry 2)
HSP70 = settings: previously described affinity of ADP for HSP70; cited from earlier work

Sequence of nucleotide-binding domain (NBD) of human HSC70 (HSC70-NBD residues 1–381) (P11142 1-381): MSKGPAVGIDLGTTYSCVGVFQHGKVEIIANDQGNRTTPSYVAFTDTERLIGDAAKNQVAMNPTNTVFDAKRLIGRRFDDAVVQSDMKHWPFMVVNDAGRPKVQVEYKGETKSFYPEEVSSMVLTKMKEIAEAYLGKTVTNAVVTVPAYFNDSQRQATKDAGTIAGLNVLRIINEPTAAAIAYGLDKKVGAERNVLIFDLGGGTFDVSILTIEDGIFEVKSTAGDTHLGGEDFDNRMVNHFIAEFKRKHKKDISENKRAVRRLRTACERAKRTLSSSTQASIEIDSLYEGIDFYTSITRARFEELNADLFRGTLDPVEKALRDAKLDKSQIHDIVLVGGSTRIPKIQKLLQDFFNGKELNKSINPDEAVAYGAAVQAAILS

## Nc1ncnc2c1nc(N)n2[C@@H]1O[C@H](CO)[C@@H](O)[C@H]1O [Compound 3, 8-aminoadenosine, reference compound]
[1]; SPR KD
  fold increase in affinity compared to adenosine 1: 16 fold

## CNc1nc2c(N)ncnc2n1[C@@H]1O[C@H](CO)[C@@H](O)[C@H]1O [Compound 4, (2R,3R,4S,5R)-2-(6-Amino-8-(methylamino)-9H-purin-9-yl)-5-(hydroxymethyl)tetrahydrofuran-3,4-diol]
[1]; SPR KD, comparator 3
  fold drop in affinity compared to 8-aminoadenosine 3: 2.5 fold

## COc1nc2c(N)ncnc2n1[C@@H]1O[C@H](CO)[C@@H](O)[C@H]1O [Compound 6, (2R,3R,4S,5R)-2-(6-Amino-8-methoxy-9H-purin-9-yl)-5-(hydroxymethyl)tetrahydrofuran-3,4-diol]
[1]
  binding / affinity in words: complete loss of activity

## CNc1nc2c(N)ncnc2n1[C@@H]1O[C@H](C)[C@@H](O)[C@H]1O [Compound 7, (2R,3R,4S,5R)-2-(6-Amino-8-(methylamino)-9H-purin-9-yl)-5-methyltetrahydrofuran-3,4-diol]
[1]; SPR KD, comparator 4
  fold drop in affinity compared with 8-N-methylaminoadenosine 4: 1.6 fold

## Nc1ncnc2c1ccn2[C@@H]1O[C@H](CO)[C@@H](O)[C@H]1O [Compound 8, Tubercidin, reference compound]
[1]; SPR KD
  fold increase in affinity compared to adenosine 1: 4 fold

## N#Cc1cn([C@@H]2O[C@H](CO)[C@@H](O)[C@H]2O)c2ncnc(N)c12 [Compound 9, Toyocamycin, reference compound]
[1]
  binding / affinity in words: comparable affinity to adenosine 1

## NC(=O)c1cn([C@@H]2O[C@H](CO)[C@@H](O)[C@H]2O)c2ncnc(N)c12 [Compound 10, Sangivamycin, reference compound]
[1]; SPR KD
  fold increase in affinity compared to adenosine 1: 35 fold
[1]; SPR off-rate analysis
  half-life: too short to be observed

## CNc1c(C#N)c2c(N)ncnc2n1[C@@H]1O[C@H](CO)[C@@H](O)[C@H]1O [Compound 12, 4-Amino-7-((2R,3R,4S,5R)-3,4-dihydroxy-5-(hydroxymethyl)tetrahydrofuran-2-yl)-6-(methylamino)-7H-pyrrolo[2,3-d]pyrimidine-5-carbonitrile]
[1]; SPR KD
  fold improvement in affinity compared to 8-N-methylaminoadenosine 4: 5 fold
[1]; SPR KD, comparator 9
  fold improvement in activity compared to toyocamycin 9: 27 fold

## CNc1c(C(N)=O)c2c(N)ncnc2n1[C@@H]1O[C@H](CO)[C@@H](O)[C@H]1O [Compound 13, 4-Amino-7-((2R,3R,4S,5R)-3,4-dihydroxy-5-(hydroxymethyl)tetrahydrofuran-2-yl)-6-(methylamino)-7H-pyrrolo[2,3-d]pyrimidine-5-carboxamide]
[1]; SPR KD, comparator 10
  fold drop in affinity compared to sangivamycin 10: 7 fold

## N#Cc1c(NCc2ccccc2)n([C@@H]2O[C@H](CO)[C@@H](O)[C@H]2O)c2ncnc(N)c12 [Compound 14, 4-Amino-6-(benzylamino)-7-((2R,3R,4S,5R)-3,4-dihydroxy-5-(hydroxymethyl)tetrahydrofuran-2-yl)-7H-pyrrolo[2,3-d]pyrimidine-5-carbonitrile]
[1]
  binding / affinity in words: little change in affinity

## Nc1ncnc2c1nc(NCc1ccccc1)n2[C@@H]1O[C@H](CO)[C@@H](O)[C@H]1O [Compound 15, (2R,3R,4S,5R)-2-(6-Amino-8-(benzylamino)-9H-purin-9-yl)-5-(hydroxymethyl)tetrahydrofuran-3,4-diol]
[1]; SPR KD
  fold improvement in affinity compared to 8-N-methylaminoadenosine 4: 12 fold

## Nc1ncnc2c1ncn2[C@@H]1O[C@H](COP(=O)(O)OP(=O)(O)O)[C@@H](O)[C@H]1O [Compound 16, adenosine diphosphate]
HSP70
  Kd: 0.5 µM

## Nc1ncnc2c1nc(NCc1ccc(Cl)cc1)n2[C@@H]1O[C@H](CO)[C@@H](O)[C@H]1O [Compound 18, (2R,3R,4S,5R)-2-(6-Amino-8-((4-chlorobenzyl)amino)-9H-purin-9-yl)-5-(hydroxymethyl)tetrahydrofuran-3,4-diol]
[1]; SPR KD
  fold improvement in affinity compared to 8-N-methylaminoadenosine 4: 60 fold
[1]; SPR KD, comparator 15
  fold improvement in affinity compared to compound 15: 5 fold

Source: article PMC5371393 (Journal of Medicinal Chemistry, 2016)
